Experimental data taken from patent US9771370B2, “Compounds for the inhibition of indoleamine-2,3-dioxygenase” (Merck Patent GmbH, priority 2014, dated 2017).

Biological target: Recombinant human IDO (Homo sapiens, UniProt P14902)
Assay: Bridge-IT tryptophan fluorescence assay of human IDO-1 inhibition
Type: biochemical
Details: recombinant human IDO 7.5 nM, L-tryptophan
Description: Measurement of human IDO-1 inhibition is performed in 384 well format using the Bridge-IT® tryptophan Fluorescence Assay (Mediomics, LLC, St. Louis, Mo., U.S.A.).
The reaction is initiated by the addition of L-Tryptophan (Sigma) at a final concentration of 100 μM in assay buffer. After 90 minutes of incubation at 37° C., the reaction is stopped by transferring 1 μl of the reaction mixture to 9 μl of Bridge-IT assay solution A. After 30 min of incubation at 30° C., the fluorescence intensity was measured at λex=485 nm and λem=665 nm using Perkin Elmer Envision® Multilabel Reader.
Measurement of human IDO-1 inhibition was performed in 384-well format using the BRIDGE-IT® tryptophan Fluorescence Assay (Mediomics, LLC, St. Louis, Mo., U.S.A.). […] After 30 minutes of pre-incubation at 25° C., the reaction was initiated by the addition of L-Tryptophan (Sigma) at a final concentration of 50 μM in assay buffer. After 60 minutes of incubation at 25° C., the reaction is stopped by transferring 1 μl of the reaction mixture to 9 μl of Bridge-IT assay solution A. After 30 min of incubation at 30° C., the fluorescence intensity was measured at λex=485 nm and λem=665 nm using Perkin Elmer ENVISION® Multilabel Reader.

Chain of Recombinant human IDO (P14902 whole entry): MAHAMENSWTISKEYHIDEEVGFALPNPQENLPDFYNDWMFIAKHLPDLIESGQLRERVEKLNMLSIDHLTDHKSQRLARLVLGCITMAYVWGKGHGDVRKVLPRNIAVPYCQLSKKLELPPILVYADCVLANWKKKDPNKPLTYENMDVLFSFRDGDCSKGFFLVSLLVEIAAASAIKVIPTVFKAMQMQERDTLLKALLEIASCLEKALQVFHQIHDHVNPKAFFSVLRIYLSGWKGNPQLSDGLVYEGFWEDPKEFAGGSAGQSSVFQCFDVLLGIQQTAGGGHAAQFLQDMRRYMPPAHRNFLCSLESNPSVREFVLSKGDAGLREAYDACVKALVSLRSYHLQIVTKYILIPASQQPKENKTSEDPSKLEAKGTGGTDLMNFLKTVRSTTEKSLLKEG

Compound | IC50 [nM]
OC1CCC(C(O)CC2c3c(ccnc3F)-c3cncn32)CC1 (mixture of isomers) [Compound 4a, 4-(2-[9-fluoro-4,6,10-triazatricyclo[6.4.0.0^[2,6]]dodeca-1(8),2,4,9,11-pentaen-7-yl]-1-hydroxyethyl) cyclohexan-1-ol] | > 1000
OC1CCC(F)(CCC2c3ncccc3-c3cncn32)CC1 (mixture of isomers) [Compound 7a, 4-fluoro-4-(2-{4,6,9-triazatricyclo[6.4.0.0^[2,6]]dodeca-1(8),2,4,9,11-pentaen-7-yl}ethyl)cyclohexan-1-ol] | > 1000
OC1CCC(F)(CCC2c3ncccc3-c3cncn32)CC1 (mixture of isomers) [Compound 7b, 4-fluoro-4-(2-{4,6,9-triazatricyclo[6.4.0.0^[2,6]]dodeca-1(8),2,4,9,11-pentaen-7-yl}ethyl)cyclohexan-1-ol] | > 1000
OC(CC1c2ncncc2-c2cncn21)C1CCCCC1 (mixture of isomers) [Compound 67d, 1-cyclohexyl-2-[4,6,9,11-tetraazatricyclo[6.4.0.0^[2,6]]dodeca-1(8),2,4,9,11-pentaen-7-yl]ethan-1-ol] | > 1000
OC(CC1c2nc(OC3CC3)ccc2-c2cncn21)C1CCCCC1 (mixture of isomers) [Compound 68b, 1-cyclohexyl-2-[10-cyclopropoxy-4,6,9-triazatricyclo[6.4.0.0^[2,6]]dodeca-1(8),2,4,9,11-pentaen-7-yl]ethan-1-ol] | > 1000
OC1CCC(C(F)(F)CC2c3ccccc3-c3cncn32)CC1 (mixture of isomers) [Compound 74a, 4-(1,1-difluoro-2-[5H-imidazo[4,3-a]isoindol-5-yl]ethyl)cyclohexan-1-ol] | < 100
OC1CCC(C(F)(F)CC2c3ccccc3-c3cncn32)CC1 (mixture of isomers) [Compound 74b, 4-(1,1-difluoro-2-[5H-imidazo[4,3-a]isoindol-5-yl]ethyl)cyclohexan-1-ol] | 100 to 1000
OC1CCC(C(F)(F)CC2c3c(F)cccc3-c3cncn32)CC1 (mixture of isomers) [Compound 75b, 4-(1,1-difluoro-2-[6-fluoro-5H-imidazo[4,3-a]isoindol-5-yl]ethyl)cyclohexan-1-ol] | 100 to 1000
OC1CCC(C(F)(F)CC2c3c(F)ccc(F)c3-c3cncn32)CC1 (mixture of isomers) [Compound 78a, 4-(2-[6,9-difluoro-5H-imidazo[4,3-a]isoindol-5-yl]-1,1-difluoroethyl)cyclohexan-1-ol] | 100 to 1000
OC1CCC(C(F)(F)CC2c3c(F)ccc(F)c3-c3cncn32)CC1 (mixture of isomers) [Compound 78b, 4-(2-[6,9-difluoro-5H-imidazo[4,3-a]isoindol-5-yl]-1,1-difluoroethyl)cyclohexan-1-ol] | > 1000
OC1(C2CCC(F)(CCC3c4c(F)cccc4-c4cncn43)CC2)CC1 (mixture of isomers) [Compound 85a, 1-[4-fluoro-4-(2-[6-fluoro-5H-imidazo[4,3-a]isoindol-5-yl]ethyl)cyclohexyl]cyclopropan-1-ol] | < 100
CC(C)(O)C1CCC(F)(CCC2c3c(F)cccc3-c3cncn32)CC1 (mixture of isomers) [Compound 86b, 2-[4-fluoro-4-(2-[6-fluoro-5H-imidazo[4,3-a]isoindol-5-yl]ethyl)cyclohexyl]propan-2-ol] | < 100
O=C(C1CCC(F)(CCC2c3ncccc3-c3cncn32)CC1)N1CCCCC1 (mixture of isomers) [Compound 100a, 7-[2-[1-Fluoro-4-[(piperidin-1-yl)carbonyl]cyclohexyl]ethyl]-4,6,9-triazatricyclo[6.4.0.0^[2,6]]dodeca-1(8),2,4,9,11-pentaene] | 100 to 1000
O=C(C1CCC(F)(CCC2c3ncccc3-c3cncn32)CC1)N1CCCCC1 (mixture of isomers) [Compound 100b, 7-[2-[1-Fluoro-4-[(piperidin-1-yl)carbonyl]cyclohexyl]ethyl]-4,6,9-triazatricyclo[6.4.0.0^[2,6]]dodeca-1(8),2,4,9,11-pentaene] | > 1000
OC1CCC(F)(CCC2c3nccc(F)c3-c3cncn32)CC1 (mixture of isomers) [Compound 103a, 4-fluoro-4-(2-[12-fluoro-4,6,9-triazatricyclo[6.4.0.0^[2,6]]dodeca-1(8),2,4,9,11-pentaen-7-yl]ethyl)cyclohexan-1-ol] | > 1000
NC1CCC(F)(CCC2c3ccccc3-c3cncn32)CC1 (mixture of isomers) [Compound 104a, 4-fluoro-4-(2-[5H-imidazo[4,3-a]isoindol-5-yl]ethyl)cyclohexan-1-amine] | > 1000
NC1CCC(F)(CCC2c3ccccc3-c3cncn32)CC1 (mixture of isomers) [Compound 104b, 4-fluoro-4-(2-[5H-imidazo[4,3-a]isoindol-5-yl]ethyl)cyclohexan-1-amine] | 100 to 1000

Compound | IC50 [nM]
OCC1CCC(F)(CCC2c3c(Cl)cccc3-c3cncn32)CC1 (mixture of isomers) [Compound 105b, [4-[2-[6-chloro-5H-imidazo[4,3-a]isoindol-5-yl]ethyl]-4-fluorocyclohexyl]methanol] | > 1000
OC1(C2CCC(F)(CCC3c4c(Cl)cccc4-c4cncn43)CC2)CC1 (mixture of isomers) [Compound 106a, 1-[4-(2-[6-chloro-5H-imidazo[4,3-a]isoindol-5-yl]ethyl)-4-fluorocyclohexyl]cyclopropan-1-ol] | < 100
CC(C)(O)C1CCC(F)(CCC2c3c(Cl)cccc3-c3cncn32)CC1 (mixture of isomers) [Compound 107a, 2-[4-(2-[6-chloro-5H-imidazo[4,3-a]isoindol-5-yl]ethyl)-4-fluorocyclohexyl]propan-2-ol] | > 1000
FC(CC1c2ccccc2-c2cncn21)C1CCCCC1 (mixture of isomers) [Compound 108a, 5-[2-cyclohexyl-2-fluoroethyl]-5H-imidazo[4,3-a]isoindole] | 100 to 1000
O=C(C1CCC(F)(CCC2c3c(F)cccc3-c3cncn32)CC1)N1CCCCC1 (mixture of isomers) [Compound 110b] | 100 to 1000
CN(C)C(=O)C1CCC(F)(CCC2c3c(F)cccc3-c3cncn32)CC1 (mixture of isomers) [Compound 111a, 4-fluoro-4-(2-[6-fluoro-5H-imidazo[4,3-a]isoindol-5-yl]ethyl)-N,N-dimethylcyclohexane-1-carboxamide] | < 100
COc1ccc2c(n1)C(CC(N)C1CCCCC1)n1cncc1-2 (mixture of isomers) [Compound 118a, 1-cyclohexyl-2-[10-methoxy-4,6,9-triazatricyclo[6.4.0.0^[2,6]]dodeca-1(8),2,4,9,11-pentaen-7-yl]ethan-1-amine] | > 1000
FC(F)(CC1c2ccccc2-c2cncn21)C1CCCCC1 (racemic) [Compound 64, 5-(2-cyclohexyl-2,2-difluoroethyl)-5H-imidazo[4,3-a]isoindole] | 100 to 1000
Fc1cccc2c1C(CC(F)(F)C1CCCCC1)n1cncc1-2 (racemic) [Compound 65, 5-(2-cyclohexyl-2,2-difluoroethyl)-6-fluoro-5H-imidazo[4,3-a]isoindole] | 100 to 1000
FC1(CCC2c3ccccc3-c3cncn32)CCCCC1 (single isomer, unassigned) [Compound 1a, 5-(2-(1-fluorocyclohexyl)ethyl)-5H-imidazo[5,1-a]isoindole] | > 1000
FC1(CCC2c3ccccc3-c3cncn32)CCCCC1 (single isomer, unassigned) [Compound 1b, 5-(2-(1-fluorocyclohexyl)ethyl)-5H-imidazo[5,1-a]isoindole] | 100 to 1000
OC(CC1c2ncccc2-c2cncn21)C1CCCCC1 (single isomer, unassigned) [Compound 5a, 1-cyclohexyl-2-[4,6,9-triazatricyclo[6.4.0.0^[2,6]]dodeca-1(8),2,4,9,11-pentaen-7-yl]ethan-1-ol] | 100 to 1000
OC(CC1c2ncccc2-c2cncn21)C1CCCCC1 (single isomer, unassigned) [Compound 5b, 1-cyclohexyl-2-[4,6,9-triazatricyclo[6.4.0.0^[2,6]]dodeca-1(8),2,4,9,11-pentaen-7-yl]ethan-1-ol] | > 1000
OC1CCC(F)(CCC2c3ncccc3-c3cncn32)CC1 (single isomer, unassigned) [Compound 8a, 4-fluoro-4-(2-{4,6,9-triazatricyclo[6.4.0.0^[2,6]]dodeca-1(8),2,4,9,11-pentaen-7-yl}ethyl)cyclohexan-1-ol] | 100 to 1000
OC1CCC(F)(CCC2c3ncccc3-c3cncn32)CC1 (single isomer, unassigned) [Compound 8b, 4-fluoro-4-(2-{4,6,9-triazatricyclo[6.4.0.0^[2,6]]dodeca-1(8),2,4,9,11-pentaen-7-yl}ethyl)cyclohexan-1-ol] | > 1000
FC1(CCC2c3cnccc3-c3cncn32)CCCCC1 (single isomer, unassigned) [Compound 10a, 7-[2-(1-fluorocyclohexyl)ethyl]-4,6,10-triazatricyclo[6.4.0.0^[2,6]]dodeca-1(8),2,4,9,11-pentaene] | > 1000
FC1(CCC2c3cnccc3-c3cncn32)CCCCC1 (single isomer, unassigned) [Compound 10b, 7-[2-(1-fluorocyclohexyl)ethyl]-4,6,10-triazatricyclo[6.4.0.0^[2,6]]dodeca-1(8),2,4,9,11-pentaene] | > 1000
